Results published in the CheMixHub viscosity set.

Assay: xn = mol fraction of the nth substance listed

[Cl-].[Cl-].[Sr+2] + O
Details | viscosity [mPa·s]
293.15 K, 100 kPa, x1 = 0.0048 | 1.08
293.15 K, 100 kPa, x1 = 0.01 | 1.172
293.15 K, 100 kPa, x1 = 0.016 | 1.283
293.15 K, 100 kPa, x1 = 0.0302 | 1.607
293.15 K, 100 kPa, x1 = 0.0452 | 2.065
293.15 K, 101.3 kPa, x1 = 0.0009 | 1.018
293.15 K, 101.3 kPa, x1 = 0.0018 | 1.032
293.15 K, 101.3 kPa, x1 = 0.00893 | 1.146
293.15 K, 101.3 kPa, x1 = 0.0177 | 1.312
293.15 K, 101.3 kPa, x1 = 0.02631 | 1.515
293.15 K, 101.3 kPa, x1 = 0.03478 | 1.722
293.15 K, 101.3 kPa, x1 = 0.0431 | 1.994
298.15 K, 100 kPa, x1 = 0.0048 | 0.9628
298.15 K, 100 kPa, x1 = 0.01 | 1.048
298.15 K, 100 kPa, x1 = 0.016 | 1.152
298.15 K, 100 kPa, x1 = 0.0302 | 1.447
298.15 K, 100 kPa, x1 = 0.0452 | 1.862
298.15 K, 101.3 kPa, x1 = 0.0009 | 0.9055
298.15 K, 101.3 kPa, x1 = 0.0018 | 0.9188
298.15 K, 101.3 kPa, x1 = 0.00893 | 1.025
298.15 K, 101.3 kPa, x1 = 0.0177 | 1.179
298.15 K, 101.3 kPa, x1 = 0.02631 | 1.364
298.15 K, 101.3 kPa, x1 = 0.03478 | 1.552
298.15 K, 101.3 kPa, x1 = 0.0431 | 1.797
303.15 K, 101.3 kPa, x1 = 0.0009 | 0.8117
303.15 K, 101.3 kPa, x1 = 0.0018 | 0.8241
303.15 K, 101.3 kPa, x1 = 0.00893 | 0.9228
303.15 K, 101.3 kPa, x1 = 0.0177 | 1.065
303.15 K, 101.3 kPa, x1 = 0.02631 | 1.236
303.15 K, 101.3 kPa, x1 = 0.03478 | 1.408
303.15 K, 101.3 kPa, x1 = 0.0431 | 1.63
308.15 K, 101.3 kPa, x1 = 0.0009 | 0.7325
308.15 K, 101.3 kPa, x1 = 0.0018 | 0.7443
308.15 K, 101.3 kPa, x1 = 0.00893 | 0.8365
308.15 K, 101.3 kPa, x1 = 0.0177 | 0.9688
308.15 K, 101.3 kPa, x1 = 0.02631 | 1.127
308.15 K, 101.3 kPa, x1 = 0.03478 | 1.284
308.15 K, 101.3 kPa, x1 = 0.0431 | 1.487
313.2 K, 100 kPa, x1 = 0.0302 | 1.096
313.56 K, 100 kPa, x1 = 0.0048 | 0.7071
313.9 K, 100 kPa, x1 = 0.01 | 0.7701
314.54 K, 100 kPa, x1 = 0.0452 | 1.374
315.86 K, 100 kPa, x1 = 0.016 | 0.8261
318.15 K, 101.3 kPa, x1 = 0.0009 | 0.6082
318.15 K, 101.3 kPa, x1 = 0.0018 | 0.6186
318.15 K, 101.3 kPa, x1 = 0.00893 | 0.6997
318.15 K, 101.3 kPa, x1 = 0.0177 | 0.8151
318.15 K, 101.3 kPa, x1 = 0.02631 | 0.9514
318.15 K, 101.3 kPa, x1 = 0.03478 | 1.086
318.15 K, 101.3 kPa, x1 = 0.0431 | 1.258

CS(C)=O + CC(C)=O
302.4 K, 101 kPa
Details | viscosity [mPa·s]
x1 = 0.0644 | 0.7031
x1 = 0.1924 | 0.809
x1 = 0.3826 | 1.14
x1 = 0.508 | 1.554
x1 = 0.6325 | 2.09
x1 = 0.8173 | 2.443

CC(=O)CC(C)(C)O + CC(C)O
viscosity [mPa·s], 100 kPa
Details | x2 = 0.1 | x2 = 0.2 | x2 = 0.3 | x2 = 0.4 | x2 = 0.5 | x2 = 0.6 | x2 = 0.7 | x2 = 0.8 | x2 = 0.9
303.15 K | 2.39 | 2.29 | 2.19 | 2.09 | 2 | 1.91 | 1.84 | 1.78 | 1.75
323.15 K | 1.5 | 1.43 | 1.36 | 1.29 | 1.23 | 1.18 | 1.12 | 1.08 | 1.04

CCN(CC)S(C)(=O)=O + CC(C)O
303.15 K, 101.33 kPa
Details | viscosity [mPa·s]
x1 = 0.068 | 15930
x1 = 0.1441 | 15440
x1 = 0.2157 | 15650
x1 = 0.2582 | 15980
x1 = 0.3391 | 16860
x1 = 0.4088 | 17920
x1 = 0.4524 | 18630
x1 = 0.5136 | 19840
x1 = 0.5952 | 21830
x1 = 0.6857 | 24330
x1 = 0.7556 | 26840
x1 = 0.8417 | 30570
x1 = 0.9259 | 35180

CCOC(=O)C(C)O (configuration not stated) + OCCCO
101 kPa
Details | viscosity [mPa·s]
298.15 K, x1 = 0.4996 | 9.585
303.15 K, x1 = 0.3 | 14.35
303.15 K, x1 = 0.8 | 3.405
313.15 K, x1 = 0.3998 | 7.365
318.15 K, x1 = 0.3 | 8.235
323.15 K, x1 = 0.5997 | 3.235

CS(C)=O + COC(=O)OC
308.15 K, 101 kPa
Details | viscosity [mPa·s]
x1 = 0.0596 | 0.547
x1 = 0.1027 | 0.57
x1 = 0.1913 | 0.621
x1 = 0.2791 | 0.677
x1 = 0.371 | 0.743
x1 = 0.4598 | 0.814
x1 = 0.5007 | 0.853
x1 = 0.5479 | 0.897
x1 = 0.626 | 0.983
x1 = 0.7427 | 1.137
x1 = 0.8572 | 1.327
x1 = 0.9283 | 1.47

CCCCC(=O)OCC + CCCCCCO
viscosity [mPa·s], 101.33 kPa
Details | x1 = 0.1071 | x1 = 0.2022 | x1 = 0.3018 | x1 = 0.3929 | x1 = 0.5117 | x1 = 0.6028 | x1 = 0.7035 | x1 = 0.8025 | x1 = 0.9053
293.15 K | 3.938 | 3.209 | 2.61 | 2.177 | 1.74 | 1.483 | 1.258 | 1.086 | 0.946
303.15 K | 3.004 | 2.46 | 2.012 | 1.688 | 1.362 | 1.17 | 1.002 | 0.873 | 0.769
313.15 K | 2.257 | 1.873 | 1.558 | 1.329 | 1.1 | 0.964 | 0.846 | 0.755 | 0.682
